Test results as given in the supplement of paper PMC10307832.

Assays:
Experiment in all cases: relative viability (nuclei count vs DMSO), 5 days (fraction); higher = more cells survive
AZD6482 + Palbociclib = compound: Cc1cc([C@@H](C)Nc2ccccc2C(=O)O)c2nc(N3CCOCC3)cc(=O)n2c1 [AZD6482] + CC(=O)c1c(C)c2cnc(Nc3ccc(N4CCNCC4)cn3)nc2n(C2CCCC2)c1=O [Palbociclib] (partner 0.5 µM)
How it was run: (§1)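 Values are medians from duplicate plates. Each reflects relative viability, defined as the nuclei count of treated wells over that of vehicle wells. Lung cancer cell lines in 1536-well plates were pin-tool dosed one day after seeding with one drug alone or with a fixed anchor-drug dose plus five library-drug doses (not always all listed) in √10 steps, then fixed, stained and imaged at 4× after 5 days.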

AZD6482 + Alpelisib = compound: Cc1cc([C@@H](C)Nc2ccccc2C(=O)O)c2nc(N3CCOCC3)cc(=O)n2c1 [AZD6482] + Cc1nc(NC(=O)N2CCC[C@H]2C(N)=O)sc1-c1ccnc(C(C)(C)C(F)(F)F)c1 [Alpelisib] (partner 2 µM)
How it was run: as §1

AZD6482 + Phenformin = compound: Cc1cc([C@@H](C)Nc2ccccc2C(=O)O)c2nc(N3CCOCC3)cc(=O)n2c1 [AZD6482] + N=C(N)NC(=N)NCCc1ccccc1 [Phenformin] (partner 250 µM)
How it was run: as §1

AZD6482 + Tozasertib = compound: Cc1cc([C@@H](C)Nc2ccccc2C(=O)O)c2nc(N3CCOCC3)cc(=O)n2c1 [AZD6482] + Cc1cc(Nc2cc(N3CCN(C)CC3)nc(Sc3ccc(NC(=O)C4CC4)cc3)n2)n[nH]1 [Tozasertib] (partner 0.1 µM)
How it was run: as §1

| Cell Line | relative viability (AZD6482 + Palbociclib; first compound 0.08 µM) | relative viability (AZD6482 + Palbociclib; first compound 0.253 µM) | relative viability (AZD6482 + Palbociclib; first compound 0.8 µM) | relative viability (AZD6482 + Palbociclib; first compound 2.53 µM) | relative viability (AZD6482 + Palbociclib; first compound 8 µM) | relative viability (AZD6482 + Alpelisib; first compound 0.08 µM) | relative viability (AZD6482 + Alpelisib; first compound 0.253 µM) | relative viability (AZD6482 + Alpelisib; first compound 0.8 µM) | relative viability (AZD6482 + Alpelisib; first compound 2.53 µM) | relative viability (AZD6482 + Alpelisib; first compound 8 µM) | relative viability (AZD6482 + Phenformin; first compound 0.08 µM) | relative viability (AZD6482 + Phenformin; first compound 0.253 µM) | relative viability (AZD6482 + Phenformin; first compound 0.8 µM) | relative viability (AZD6482 + Phenformin; first compound 2.53 µM) | relative viability (AZD6482 + Phenformin; first compound 8 µM) | relative viability (AZD6482 + Tozasertib; first compound 0.08 µM) | relative viability (AZD6482 + Tozasertib; first compound 0.253 µM) | relative viability (AZD6482 + Tozasertib; first compound 0.8 µM) | relative viability (AZD6482 + Tozasertib; first compound 2.53 µM) | relative viability (AZD6482 + Tozasertib; first compound 8 µM) |
| --- | --- | --- | --- | --- | --- | --- | --- | --- | --- | --- | --- | --- | --- | --- | --- | --- | --- | --- | --- | --- |
| LXF-289 | 0.565 | 0.605 | 0.634 | 0.631 | 0.55 | 0.946 | 1.01 | 0.966 | 0.798 | 0.706 | 0.491 | 0.471 | 0.51 | 0.452 | 0.307 | 0.178 | 0.135 | 0.171 | 0.207 | 0.122 |
| NCI-H23 | 0.471 | 0.421 | 0.487 | 0.396 | 0.325 | 0.642 | 0.534 | 0.713 | 0.374 | 0.597 | 0.789 | 0.785 | 0.84 | 0.628 | 0.658 | 0.489 | 0.302 | 0.398 | 0.358 | 0.228 |
| NCI-H322M | 0.447 | 0.486 | 0.476 | 0.424 | 0.39 | 0.574 | 0.553 | 0.573 | 0.474 | 0.48 | 0.705 | 0.673 | 0.712 | 0.414 | 0.537 | 0.442 | 0.461 | 0.453 | 0.319 | 0.384 |
| NCI-H358 | 0.149 | 0.121 | 0.134 | 0.127 | 0.115 | 0.657 | 0.978 | 0.705 | 0.39 | 0.833 | 0.305 | 0.323 | 0.317 | 0.163 | 0.233 | 0.0814 | 0.107 | 0.104 | 0.0733 | 0.0946 |
| NCI-H441 | 0.248 | 0.246 | 0.215 |  | 0.182 | 0.65 | 0.834 | 0.592 | 0.532 | 0.66 | 0.677 | 0.679 | 0.967 |  | 0.468 | 0.631 | 0.545 | 0.632 |  | 0.527 |
| NCI-H460 | 0.124 | 0.138 | 0.269 | 0.135 | 0.129 | 0.206 | 0.352 | 0.263 | 0.13 | 0.18 | 0.492 | 0.512 | 0.535 | 0.326 | 0.182 | 0.468 | 0.288 | 0.135 | 0.537 | 0.389 |
| NCI-H520 | 0.123 | 0.157 | 0.179 | 0.146 | 0.15 | 0.381 | 0.287 | 0.263 |  | 0.353 | 0.402 | 0.283 | 0.285 | 0.166 | 0.225 | 0.39 | 0.344 | 0.344 | 0.221 | 0.221 |
| NCI-H647 | 0.305 | 0.293 | 0.309 | 0.241 | 0.195 | 0.622 |  | 0.778 | 0.459 | 0.526 | 0.417 | 0.473 | 0.399 | 0.262 | 0.324 | 0.23 | 0.26 | 0.192 | 0.145 | 0.23 |
| NCI-H650 | 0.364 | 0.291 | 0.276 | 0.237 | 0.271 | 1.11 |  | 0.997 | 0.656 | 0.778 | 0.467 |  | 0.431 | 0.292 | 0.31 | 0.722 |  | 0.751 | 0.588 | 0.443 |
| NCI-H661 | 0.41 | 0.43 | 0.41 | 0.387 | 0.364 | 0.656 | 0.454 | 0.486 |  | 0.419 | 0.285 | 0.274 | 0.297 | 0.245 | 0.216 | 0.365 | 0.362 | 0.407 | 0.372 | 0.383 |
| NCI-H727 | 0.63 | 0.63 | 0.811 |  | 0.532 | 0.398 | 0.535 | 0.46 |  | 0.493 | 0.445 | 0.683 | 0.465 | 0.488 | 0.315 | 0.587 | 0.645 | 0.571 | 0.457 | 0.449 |
| NCI-H838 | 0.167 | 0.203 | 0.204 | 0.167 | 0.163 | 0.8 | 0.98 | 0.881 | 0.679 | 0.771 | 0.459 | 0.519 | 0.497 | 0.263 | 0.397 | 0.264 | 0.266 | 0.243 | 0.192 | 0.222 |
| NCI-H1355 | 0.294 | 0.374 | 0.32 | 0.279 | 0.286 | 0.523 | 0.621 | 0.6 | 0.452 | 0.592 | 0.41 | 0.386 | 0.414 | 0.308 | 0.329 | 0.462 | 0.419 | 0.43 | 0.435 | 0.441 |
| NCI-H1395 | 0.49 | 0.486 | 0.482 | 0.401 | 0.456 | 0.696 | 0.573 | 0.732 | 0.5 | 0.587 | 0.388 | 0.385 | 0.438 | 0.347 | 0.302 | 0.625 | 0.646 | 0.584 | 0.54 | 0.44 |
| NCI-H1437 | 0.353 | 0.319 | 0.36 | 0.316 | 0.24 | 0.819 | 0.842 | 0.809 | 0.641 | 0.741 | 0.268 | 0.287 | 0.262 | 0.223 | 0.261 | 0.393 | 0.408 | 0.301 | 0.325 | 0.254 |
| NCI-H1651 | 0.485 | 0.493 | 0.508 | 0.486 | 0.496 | 0.791 | 0.778 | 0.712 | 0.42 | 0.777 | 0.281 | 0.296 | 0.33 | 0.253 | 0.242 | 0.68 | 0.647 | 0.598 | 0.565 | 0.592 |
